The values below come from patent US8022206B2 (OSI Pharmaceuticals, LLC, priority 2008, dated 2011).

As usually defined, the IC50 is the concentration that gives 50% inhibition.

One experiment has as its target RON (human) (Homo sapiens, UniProt Q04912). Nature of the experiment: RON (human) AlphaScreen kinase assay, Km of ATP. Conditions: AlphaScreen, Km of ATP; read-out: RON biochemical IC50. It counts as biochemical. A digest of the protocol: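 Reaction was started with enzyme and run 30 min at RT. PT66 donor/acceptor beads in an EDTA-containing Tris pH 7.5 buffer were then added, and the signal was read after 1 h.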
On the technique in general: Bead proximity is the source of the signal in Alpha formats.

The target of another experiment is MET (human) (Homo sapiens, UniProt P08581). Nature of the experiment: MET (human) AlphaScreen kinase assay, Km of ATP. It counts as biochemical. Conditions: AlphaScreen, Km of ATP; read-out: Met biochemical IC50. In outline: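 Human MET at lot-optimised concentration in 50 mM Tris pH 7.4 buffer with 1 mM DTT, compound at 1% DMSO final; enzyme starts the reaction, 60 min at RT.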
MET (human), sequence (P08581 25-1390): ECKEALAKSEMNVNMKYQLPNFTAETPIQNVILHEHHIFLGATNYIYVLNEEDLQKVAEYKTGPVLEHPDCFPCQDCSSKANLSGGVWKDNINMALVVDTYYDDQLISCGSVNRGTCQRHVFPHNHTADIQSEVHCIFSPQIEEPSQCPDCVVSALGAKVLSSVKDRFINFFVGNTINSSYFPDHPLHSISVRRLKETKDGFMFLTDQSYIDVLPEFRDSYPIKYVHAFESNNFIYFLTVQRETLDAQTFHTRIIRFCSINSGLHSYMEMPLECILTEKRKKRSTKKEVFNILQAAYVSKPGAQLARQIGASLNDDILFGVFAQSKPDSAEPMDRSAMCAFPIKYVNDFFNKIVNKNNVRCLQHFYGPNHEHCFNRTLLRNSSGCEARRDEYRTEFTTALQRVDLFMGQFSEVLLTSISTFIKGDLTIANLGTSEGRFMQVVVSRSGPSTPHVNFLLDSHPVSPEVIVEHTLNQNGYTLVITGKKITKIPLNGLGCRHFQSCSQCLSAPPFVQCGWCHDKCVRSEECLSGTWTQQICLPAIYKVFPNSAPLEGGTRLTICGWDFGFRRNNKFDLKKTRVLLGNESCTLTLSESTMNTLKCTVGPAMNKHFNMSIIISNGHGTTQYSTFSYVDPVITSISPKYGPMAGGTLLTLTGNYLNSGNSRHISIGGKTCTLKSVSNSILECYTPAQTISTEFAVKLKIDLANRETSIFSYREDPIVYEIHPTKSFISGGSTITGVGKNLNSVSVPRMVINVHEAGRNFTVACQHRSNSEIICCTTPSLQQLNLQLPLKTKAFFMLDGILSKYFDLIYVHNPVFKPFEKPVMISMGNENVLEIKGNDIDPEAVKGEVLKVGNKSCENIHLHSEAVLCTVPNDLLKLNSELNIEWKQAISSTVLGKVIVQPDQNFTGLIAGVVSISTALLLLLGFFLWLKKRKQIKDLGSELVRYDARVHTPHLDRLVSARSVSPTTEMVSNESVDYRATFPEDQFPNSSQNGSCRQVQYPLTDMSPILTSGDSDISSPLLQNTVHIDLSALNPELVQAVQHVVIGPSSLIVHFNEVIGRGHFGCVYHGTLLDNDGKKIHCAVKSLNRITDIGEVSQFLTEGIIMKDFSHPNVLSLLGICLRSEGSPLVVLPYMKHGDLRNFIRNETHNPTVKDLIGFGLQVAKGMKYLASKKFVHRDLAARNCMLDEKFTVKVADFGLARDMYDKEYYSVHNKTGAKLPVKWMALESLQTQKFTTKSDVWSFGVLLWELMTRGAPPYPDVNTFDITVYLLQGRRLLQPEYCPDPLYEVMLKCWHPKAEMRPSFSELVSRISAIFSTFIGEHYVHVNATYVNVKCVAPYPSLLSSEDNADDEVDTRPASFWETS

RON (human), sequence (Q04912 25-1400): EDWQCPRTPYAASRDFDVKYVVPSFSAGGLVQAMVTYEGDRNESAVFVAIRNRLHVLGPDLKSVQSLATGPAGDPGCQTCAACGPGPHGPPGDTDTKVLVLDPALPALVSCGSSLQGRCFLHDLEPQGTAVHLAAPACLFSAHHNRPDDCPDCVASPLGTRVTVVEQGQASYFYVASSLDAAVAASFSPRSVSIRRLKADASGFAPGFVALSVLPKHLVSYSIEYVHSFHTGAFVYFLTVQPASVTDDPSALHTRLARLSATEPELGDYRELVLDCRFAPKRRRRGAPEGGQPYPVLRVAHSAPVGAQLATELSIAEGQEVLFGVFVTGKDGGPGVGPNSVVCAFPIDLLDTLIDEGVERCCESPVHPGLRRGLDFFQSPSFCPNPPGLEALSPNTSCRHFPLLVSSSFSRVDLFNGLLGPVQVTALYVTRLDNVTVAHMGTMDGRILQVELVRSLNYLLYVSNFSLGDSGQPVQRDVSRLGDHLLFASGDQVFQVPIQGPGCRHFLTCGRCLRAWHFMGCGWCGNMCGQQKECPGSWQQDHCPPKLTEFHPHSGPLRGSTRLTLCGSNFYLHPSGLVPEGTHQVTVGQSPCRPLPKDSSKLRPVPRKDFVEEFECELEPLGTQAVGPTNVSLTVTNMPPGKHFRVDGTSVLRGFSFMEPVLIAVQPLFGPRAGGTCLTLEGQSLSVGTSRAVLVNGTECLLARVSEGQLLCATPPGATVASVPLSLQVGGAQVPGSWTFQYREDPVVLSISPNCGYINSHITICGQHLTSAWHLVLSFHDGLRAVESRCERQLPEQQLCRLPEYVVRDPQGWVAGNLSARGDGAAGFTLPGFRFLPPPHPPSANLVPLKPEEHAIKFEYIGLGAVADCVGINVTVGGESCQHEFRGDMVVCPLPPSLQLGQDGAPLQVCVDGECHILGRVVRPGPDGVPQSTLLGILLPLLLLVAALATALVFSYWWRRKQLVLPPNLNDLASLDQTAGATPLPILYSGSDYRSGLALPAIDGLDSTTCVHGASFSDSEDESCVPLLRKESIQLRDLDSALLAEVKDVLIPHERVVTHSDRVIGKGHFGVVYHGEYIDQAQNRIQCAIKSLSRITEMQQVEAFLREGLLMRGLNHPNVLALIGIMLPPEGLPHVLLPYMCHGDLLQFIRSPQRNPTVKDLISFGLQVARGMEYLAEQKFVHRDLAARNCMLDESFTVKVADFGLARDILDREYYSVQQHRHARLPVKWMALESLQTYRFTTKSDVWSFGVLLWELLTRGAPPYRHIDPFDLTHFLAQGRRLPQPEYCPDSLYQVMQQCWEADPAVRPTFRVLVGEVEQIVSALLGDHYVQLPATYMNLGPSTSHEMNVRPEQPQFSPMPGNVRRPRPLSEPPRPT

`C[C@@H](Oc1c(N)ncc2c(-c3ccc(CN4CCN(C)CC4)s3)coc12)c1c(Cl)ccc(F)c1Cl` [Example 218, 7-[(R)-1-(2,6-Dichloro-3-fluorophenyl)ethoxy]-3-[5-(4-methylpiperazin-1-ylmethyl)-thiophen-2-yl]furo[3,2-c]pyridin-6-ylamine]: the IC50 on RON (human) and on MET (human) was less than 500 nM each time.

For the molecule `C[C@@H](Oc1c(N)ncc2c(-c3cnn(C4CCNCC4)c3)coc12)c1nnc2ccc(-c3cnn(C)c3)nn12` [Example 469, 7-{(1R)-1-[6-(1-methyl-1H-pyrazol-4-yl) [1,2,4]triazolo[4,3-b]pyridazin-3-yl]ethoxy}-3-[1-(piperidin-4-yl)-1H-pyrazol-4-yl]furo[3,2-c]pyridin-6-amine], the figures for the IC50 on RON (human) and at MET (human) were 5000 to 20000 nM and less than 500 nM, respectively.

Regarding `Nc1ncc2c(-c3cnn(C4CCNCC4)c3)coc2c1OC1CCCc2cccc(Cl)c21` (stereo not drawn) [Example 389, 7-(8-Chloro-1,2,3,4-tetrahydronaphthalen-1-yloxy)-3-(1-piperidin-4-yl-1H-pyrazol-4-yl)furo[3,2-c]pyridin-6-ylamine], the half-maximal inhibitory concentration (IC50) on RON (human) and at MET (human) was 500 to 5000 nM each time.

`CCN1CC=C(c2coc3c(O[C@H](C)c4c(Cl)ccc(F)c4Cl)c(N)ncc23)CC1` [Example 40, 7-[(R)-1-(2,6-Dichloro-3-fluorophenyl)-ethoxy]-3-(1-ethyl-1,2,3,6-tetrahydropyridin-4-yl)-furo[3,2-c]pyridin-6-ylamine]: the half-maximal inhibitory concentration (IC50) at RON (human) and at MET (human) was less than 500 nM each time.

On to `C[C@@H](Oc1c(N)ncc2c(C3=CCN(c4c(N)c(=O)c4=O)CC3)coc12)c1c(Cl)ccc(F)c1Cl` [Example 205, 3-Amino-4-(4-{6-amino-7-[(R)-1-(2,6-dichloro-3-fluorophenyl)ethoxy]-furo[3,2-c]pyridin-3-yl}-3,6-dihydro-2H-pyridin-1-yl)-cyclobut-3-ene-1,2-dione], for which the concentration for half-maximal inhibition (IC50) at RON (human) is 500 to 5000 nM; at MET (human), less than 500 nM.

With `COc1ccccc1CC(C)Oc1c(N)ncc2c(-c3cnn(C4CCNCC4)c3)coc12` (stereo not drawn) [Example 406, 7-[2-(2-Methoxyphenyl)-1-methylethoxy]-3-(1-piperidin-4-yl-1H-pyrazol-4-yl)furo[3,2-c]pyridin-6-ylamine], the 50% inhibitory concentration (IC50) at RON (human) and on MET (human) was less than 500 nM each time.

As to `C[C@@H](Oc1c(N)ncc2c(-c3ccc(OCCCN(C)C)nc3)coc12)c1c(Cl)ccc(F)c1Cl` [Example 122, 7-[(R)-1-(2,6-Dichloro-3-fluorophenyl)ethoxy]-3-[6-(3-dimethylaminopropoxy)pyridin-3-yl]furo[3,2-c]pyridin-6-ylamine], the half-inhibitory concentration (IC50) at RON (human) and on MET (human) was less than 500 nM each time.

For `C[C@@H](Oc1c(N)ncc2c(-c3csc(C(=O)N4CCN(C)CC4)c3)coc12)c1c(Cl)ccc(F)c1Cl` [Example 316, (4-{6-Amino-7-[(R)-1-(2,6-dichloro-3-fluorophenyl)ethoxy]furo[3,2-c]pyridin-3-yl}thiophen-2-yl)-(4-methylpiperazin-1-yl)methanone], the half-inhibitory concentration (IC50) at RON (human) and on MET (human) was less than 500 nM each time.

As to `C[C@@H](Oc1c(N)ncc2c(C3=CCN(C(=O)[C@@H]4CCCN4)CC3)coc12)c1c(Cl)ccc(F)c1Cl` [Example 22, (4-{6-Amino-7-[(R)-1-(2,6-dichloro-3-fluorophenyl)ethoxy]furo[3,2-c]pyridin-3-yl}-3,6-dihydro-2H-pyridin-1-yl)-(S)-pyrrolidin-2-ylmethanone], the 50% inhibitory concentration (IC50) on RON (human) and on MET (human) was less than 500 nM throughout.

With `CC(Cc1ccccc1C(F)(F)F)Oc1c(N)ncc2c(-c3cnn(C4CCNCC4)c3)coc12` (stereo not drawn) [Example 435, 7-[1-Methyl-2-(2-trifluoromethylphenyl)ethoxy]-3-(1-piperidin-4-yl-1H-pyrazol-4-yl)furo[3,2-c]pyridin-6-ylamine], the results for the IC50 on RON (human) and on MET (human) were 500 to 5000 nM and less than 500 nM, respectively.

Turning to `C[C@@H](Oc1c(N)ncc2c(-c3cnn(C4CCNCC4)c3)coc12)c1ccccc1Cl` [Example 335, 7-[(R)-1-(2-Chlorophenyl)ethoxy]-3-(1-piperidin-4-yl-1H-pyrazol-4-yl)-furo[3,2-c]pyridin-6-ylamine], the IC50 was 500 to 5000 nM at RON (human) and less than 500 nM on MET (human).

As to `C[C@@H](Oc1c(N)ncc2c(C3=CCN(C(=O)N4CCN(C(C)(C)C)CC4)CC3)coc12)c1c(Cl)ccc(F)c1Cl` [Example 29, (4-{6-Amino-7-[(R)-1-(2,6-dichloro-3-fluorophenyl)-ethoxy]-furo[3,2-c]pyridin-3-yl}-3,6-dihydro-2H-pyridin-1-yl)-(4-tert-butylpiperazin-1-yl)-methanone], the concentration for half-maximal inhibition (IC50) at RON (human) and at MET (human) was less than 500 nM throughout.

With `C[C@@H](Oc1c(N)ncc2c(-c3cnc(N4CCN(C)CC4)nc3)coc12)c1c(Cl)ccc(F)c1Cl` [Example 123, 7-[(R)-1-(2,6-Dichloro-3-fluorophenyl)ethoxy]-3-[2-(4-methylpiperazin-1-yl)pyrimidin-5-yl]furo[3,2-c]pyridin-6-ylamine], the IC50 on RON (human) and at MET (human) was 500 to 5000 nM each time.

On to `C[C@@H](Oc1c(N)ncc2c(C3=CCN(C(=O)[C@H](N)Cc4ccccc4)CC3)coc12)c1c(Cl)ccc(F)c1Cl` [Example 257, (2R)-2-Amino-1-[4-{6-amino-7-[(1R)-1-(2,6-dichloro-3-fluoro-phenyl)ethoxy]furo[3,2-c]pyridin-3-yl}-3,6-dihydropyridin-1(2H)-yl]-3-phenylpropan-1-one], for which the IC50 on RON (human) was 500 to 5000 nM; on MET (human) it was less than 500 nM.

Consider `COC(=O)N1CCC(n2cc(-c3coc4c(O[C@H](C)c5c(Cl)ccc(F)c5Cl)c(N)ncc34)cn2)CC1` [Example 274, Methyl 4-(4-{6-Amino-7-[(1R)-1-(2,6-dichloro-3-fluorophenyl)ethoxy]furo[3,2-c]pyridin-3-yl}-1H-pyrazol-1-yl)piperidine-1-carboxylate], for which the IC50 at RON (human) and on MET (human) was 500 to 5000 nM each time.

Consider `C[C@@H](Oc1c(N)ncc2c(C3=CCN(C(=O)[C@H](O)c4ccccc4)CC3)coc12)c1c(Cl)ccc(F)c1Cl` [Example 266, (2R)-1-[4-{6-Amino-7-[(1R)-1-(2,6-dichloro-3-fluorophenyl)ethoxy]furo[3,2-c]pyridin-3-yl}-3,6-dihydropyridin-1(2H)-yl]-2-hydroxy-2-phenylethanone], for which the half-maximal inhibitory concentration (IC50) at RON (human) and on MET (human) was 500 to 5000 nM in each case.

Turning to `CC(Oc1c(N)ncc2c(-c3cnn(C4CCNCC4)c3)coc12)c1c(Cl)c(F)cc(OCCN(C)C)c1Cl` (stereo not drawn) [Example 157, 7-(1-{2,6-Dichloro-3-[2-(dimethylamino)ethoxy]-5-fluorophenyl}ethoxy)-3-[1-(piperidin-4-yl)-1H-pyrazol-4-yl]furo[3,2-c]pyridin-6-amine], the IC50 at RON (human) and at MET (human) was less than 500 nM in each case.

As for `C[C@@H](Oc1c(N)ncc2c(C3=CCN(S(=O)(=O)C4CC4)CC3)coc12)c1c(Cl)ccc(F)c1Cl` [Example 48, 3-(1-Cyclopropanesulfonyl-1,2,3,6-tetrahydropyridin-4-yl)-7-[(R)-1-(2,6-dichloro-3-fluorophenyl)-ethoxy]-furo[3,2-c]pyridin-6-ylamine], the concentration for half-maximal inhibition (IC50) on RON (human) is 500 to 5000 nM; at MET (human) it was less than 500 nM.
